“Also recorded” adds a separate entry of the source. Like-named read-outs stand apart in the source and are kept apart here.
Target: Cp-NanI (Clostridium perfringens, UniProt A0A0H2YQR1)
Assay: biochemical

Cp-NanI, sequence (A0A0H2YQR1 243-694 limits assumed): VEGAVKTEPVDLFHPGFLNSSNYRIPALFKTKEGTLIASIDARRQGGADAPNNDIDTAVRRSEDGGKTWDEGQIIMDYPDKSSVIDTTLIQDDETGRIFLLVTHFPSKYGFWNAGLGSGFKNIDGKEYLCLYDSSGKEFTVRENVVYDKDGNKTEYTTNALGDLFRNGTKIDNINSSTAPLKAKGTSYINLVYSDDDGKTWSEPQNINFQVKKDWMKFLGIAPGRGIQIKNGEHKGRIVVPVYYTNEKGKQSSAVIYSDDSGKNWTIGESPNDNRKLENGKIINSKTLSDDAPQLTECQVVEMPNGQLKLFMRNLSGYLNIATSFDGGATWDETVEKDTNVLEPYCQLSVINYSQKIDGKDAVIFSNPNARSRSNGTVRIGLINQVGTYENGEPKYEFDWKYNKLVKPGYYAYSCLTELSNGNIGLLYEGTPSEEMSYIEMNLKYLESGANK

With “6-[(2E)-3,7-dimethylocta-2,6-dienyl]-5,7-dihydroxy-2-(3-hydroxy-4-methoxyphenyl)-2,3-dihydrochromen-4-one [3′-O-Methyldiplacone]” the IC50 (pH 5, read-out: IC50) was 14.3 µM.
`COc1ccc(C2CC(=O)c3c(cc(O)c(C/C=C(\C)CCC=C(C)C)c3O)O2)cc1O` (stereo not shown) [4′-O-Methyldiplacone, 6-[(2E)-3,7-dimethylocta-2,6-dienyl]-5,7-dihydroxy-2-(3-hydroxy-4-methoxyphenyl)-2,3-dihydrochromen-4-one] was tested, and the IC50 was 12.9 µM.
For `CC(C)=CCC/C(C)=C/Cc1c(O)cc2c(c1O)C(=O)CC(c1ccc(O)c(O)c1)O2` (stereo not shown) [Diplacone, 2-(3,4-dihydroxyphenyl)-6-[(2E)-3,7-dimethylocta-2,6-dienyl]-5,7-dihydroxy-2,3-dihydrochromen-4-one], the IC50 was 0.11 µM, the “inhibition kinetics / mechanism” value was “competitive kinetics; also recorded: time-dependent inhibitor” and the “k 5” value was 0.201 ± 0.003 min⁻¹. The “k 6” value was 0.0017 ± 0.004 min⁻¹, the Ki (K i) was 0.04 µM and the Ki (K i ^app) was 0.065 ± 0.008 µM.
In the case of `O=C1C[C@@H](c2ccc(O)c(O)c2)Oc2cc(O)cc(O)c21` [Eriodictyol, (2S)-2-(3,4-dihydroxyphenyl)-5,7-dihydroxy-4-chroman-one, reference compound], the IC50 is reported as 16.4 µM.
`CC(C)=CCC/C(C)=C/Cc1c(O)cc2c(c1O)C(=O)C[C@@H](c1ccc(O)cc1)O2` [Mimulone, (2S)-6-[(2E)-3,7-dimethylocta-2,6-dienyl]-5,7-dihydroxy-2-(4-hydroxyphenyl)-2,3-dihydrochromen-4-one] was tested, and the IC50 was 6.1 µM.

— article PMC4014123 (Acta Crystallographica Section D: Biological Crystallography, 2014)
